# Results from US12171230B2, “Herbicidal compositions” (Bayer Aktiengesellschaft, priority 2018, dated 2024).
# Assays:
# Format in all cases: in vivo
# [1] = tested on: Bromus sterilis; assay: Post-emergence herbicidal action against Bromus sterilis
# [2] = tested on: Poa annua; assay: Post-emergence herbicidal action against Poa annua; conditions: for Herbicidal action: 14 DAT
# Outline: (§1)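 Pot-grown plants, three weeks old at the three-leaf stage, received foliar sprays of various dosages. Visual assessment relative to untreated plants followed 3 to 4 weeks later.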
# [3] = tested on: Matricaria inodora; assay: Post-emergence herbicidal action against Matricaria inodora; conditions: for Herbicidal action: 450 g a.i./ha
# [4] = tested on: Lolium rigidum; assay: Post-emergence herbicidal action against Lolium rigidum
# [5] = tested on: Lolium rigidum (resistant biotype); assay: Post-emergence herbicidal action against Lolium rigidum (resistant biotype)
# [6] = tested on: Lamium purpureum; assay: Post-emergence herbicidal action against Lamium purpureum
# Method: When the observed efficacies exceed the formal sum total of the values of the tests with individual applications, they also exceed the expected value according to Colby, which is calculated using the formula below and is likewise regarded as an indication of synergism (cf. S. R. Colby; in Weeds 15 (1967) p. 20 to 22): E^C=A+B−([…])
# Here: • A=efficacy of the active compound (A) in % at an application rate of a g a.i./ha; • B=efficacy of the active compound (B) in % at an application rate of b g a.i./ha; • E^C=expected value of the effect of the combination (A)+(B) in % at the combined application rate a+b g a.i./ha.
# Seeds or rhizome pieces of mono- and dicotyledonous weeds are placed in sandy loam in pots, covered with soil and grown in a greenhouse under good growth conditions (temperature, air humidity, water supply). Three weeks after sowing, the test plants were treated at the three-leaf stage with the compositions according to the invention. The compositions according to the invention formulated as spray powders or as emulsion concentrates were sprayed onto the green plant parts in various dosages with an application rate of 300 to 800 l/ha of water (equivalent). After the test plants have been left to stand in the greenhouse under optimal growth conditions for about 3 to 4 weeks, the action of the preparations is scored visually in comparison to untreated controls. The compositions according to the invention also have good post-emergence herbicidal activity against a broad spectrum of economically important gramineous and broadleaf weeds.
# [7] = tested on: Galium aparine; assay: Post-emergence herbicidal action against Galium aparine
# Outline: as §1
# [8] = tested on: Alopecurus myosuroides; assay: Post-emergence herbicidal action against Alopecurus myosuroides
# [9] = tested on: Viola tricolor; assay: Post-emergence herbicidal action against Viola tricolor
# [10] = tested on: Phalaris minor; assay: Post-emergence herbicidal action against Phalaris minor
# [11] = tested on: Lolium rigidum; assay: Post-emergence herbicidal action against Lolium rigidum; remark: listed apart in the source
# [12] = tested on: Bromus sterilis; assay: Post-emergence herbicidal action against Bromus sterilis; conditions: 14 DAT; 50 g a.i./ha
# [13] = tested on: Viola tricolor; assay: Post-emergence herbicidal action against Viola tricolor; remark: listed apart in the source
# [14] = tested on: Centaurea cyano; assay: Post-emergence herbicidal action against Centaurea cyano
# Method: Seeds or rhizome pieces of mono- and dicotyledonous weeds are placed in sandy loam in pots, covered with soil and grown in a greenhouse under good growth conditions (temperature, air humidity, water supply). Three weeks after sowing, the test plants were treated at the three-leaf stage with the compositions according to the invention. The compositions according to the invention formulated as spray powders or as emulsion concentrates were sprayed onto the green plant parts in various dosages with an application rate of 300 to 800 l/ha of water (equivalent).
# [15] = tested on: Phalaris minor; assay: Post-emergence herbicidal action against Phalaris minor; remark: listed apart in the source
compound,measurement,setting,value
Cc1nn(-c2cc(CC(Cl)C(=O)O)c(Cl)cc2F)c(=O)n1C(F)F (stereo not shown) [(B4.8) Carfentrazone],Herbicidal action in [%] 14 DAT against Bromus sterilis,[1]; 15 g of a.i./ha,20%
same,Herbicidal action in [%] 28 DAT against Bromus sterilis,[1]; 15 g of a.i./ha,15%
same,Herbicidal action in [%] 14 DAT against Bromus sterilis,[1]; 45 g of a.i./ha,30%
same,Herbicidal action in [%] 28 DAT against Bromus sterilis,[1]; 45 g of a.i./ha,35%
same,Herbicidal action in [%] 14 DAT against Poa annua L.,[2]; 5 g of a.i./ha,0%
same,Herbicidal action in [%] 14 DAT against Poa annua L.,[2]; 15 g of a.i./ha,0%
same,Herbicidal action in [%] 28 DAT against Poa annua L.,[2]; 15 g of a.i./ha,0%
same,Herbicidal action in [%] 14 DAT against Poa annua L.,[2]; 45 g of a.i./ha,10%
same,Herbicidal action in [%] 28 DAT against Poa annua L.,[2]; 45 g of a.i./ha,20%
same,Herbicidal action in [%] 14 DAT against Matricaria inodora,[3]; 5 g of a.i./ha,25%
same,Herbicidal action in [%] 28 DAT against Lolium rigidum,[4]; 15 g of a.i./ha,0%
same,Herbicidal action in [%] 28 DAT against Lolium rigidum,[4]; 45 g of a.i./ha,20%
same,Herbicidal action in [%] 14 DAT against Lolium rigidum (resistant biotype),[5]; 15 g of a.i./ha,10%
same,Herbicidal action in [%] 28 DAT against Lolium rigidum (resistant biotype),[5]; 15 g of a.i./ha,0%
same,Herbicidal action in [%] 14 DAT against Lolium rigidum (resistant biotype),[5]; 45 g of a.i./ha,25%
same,Herbicidal action in [%] 28 DAT against Lolium rigidum (resistant biotype),[5]; 45 g of a.i./ha,20%
same,Herbicidal action in [%] 28 DAT against Lamium purpureum L.,[6]; 45 g of a.i./ha,80%
same,Herbicidal action in [%] 28 DAT against Galium aparine,[7]; 5 g of a.i./ha,70%
same,Herbicidal action in [%] 28 DAT against Galium aparine,[7]; 15 g of a.i./ha,80%
same,Herbicidal action in [%] 14 DAT against Alopecurus myosuroides,[8]; 5 g of a.i./ha,0%
same,Herbicidal action in [%] 14 DAT against Alopecurus myosuroides,[8]; 15 g of a.i./ha,0%
same,Herbicidal action in [%] 28 DAT against Alopecurus myosuroides,[8]; 15 g of a.i./ha,0%
same,Herbicidal action in [%] 14 DAT against Alopecurus myosuroides,"[8]; 15 g of a.i./ha, second 14 DAT block",15%
same,Herbicidal action in [%] 14 DAT against Alopecurus myosuroides,[8]; 45 g of a.i./ha,25%
same,Herbicidal action in [%] 28 DAT against Alopecurus myosuroides,[8]; 45 g of a.i./ha,20%
same,Herbicidal action in [%] 14 DAT against Alopecurus myosuroides,"[8]; 45 g of a.i./ha, second 14 DAT block",35%
same,Herbicidal action in [%] 28 DAT against Viola tricolor,[9]; 5 g of a.i./ha,80%
same,Herbicidal action in [%] 14 DAT against Phalaris minor,[10]; 15 g of a.i./ha,15%
same,Herbicidal action in [%] 28 DAT against Phalaris minor,[10]; 15 g of a.i./ha,0%
same,Herbicidal action in [%] 14 DAT against Phalaris minor,[10]; 45 g of a.i./ha,20%
same,Herbicidal action in [%] 28 DAT against Phalaris minor,[10]; 45 g of a.i./ha,10%
CP(=O)(O)CCC(N)C(=O)O (stereo not shown) [(7.4) Glufosinate],Herbicidal action,"[11]; 14 DAT, 150 g a.i./ha",50%
same,Herbicidal action,"[11]; 14 DAT, resistant biotype, 150 g a.i./ha",30%
same,Herbicidal action,"[11]; 28 DAT, 150 g a.i./ha",30%
same,Herbicidal action,"[11]; 28 DAT, resistant biotype, 150 g a.i./ha",30%
same,Herbicidal action,"[11]; 28 DAT, resistant biotype, 450 g a.i./ha",50%
same,Herbicidal action,[2]; 50 g a.i./ha,10%
same,Herbicidal action,[2]; 150 g a.i./ha,30%
same,Herbicidal action,[2]; 450 g a.i./ha,40%
same,Herbicidal action,[12],0%
same,Herbicidal action,[3]; 14 DAT,90%
same,Herbicidal action,[3]; 28 DAT,85%
same,Herbicidal action,"[13]; 14 DAT, 150 g a.i./ha",80%
same,Herbicidal action,"[13]; 28 DAT, 50 g a.i./ha",20%
same,Herbicidal action,"[13]; 28 DAT, 150 g a.i./ha",50%
same,Herbicidal action,"[13]; 28 DAT, 450 g a.i./ha",60%
same,Herbicidal action,"[7]; 28 DAT, 50 g a.i./ha",0%
same,Herbicidal action,"[14]; 14 DAT, 50 g a.i./ha",30%
same,Herbicidal action,"[14]; 28 DAT, 450 g a.i./ha",60%
same,Herbicidal action,"[15]; 14 DAT, 50 g a.i./ha",0%
same,Herbicidal action,"[15]; 14 DAT, 150 g a.i./ha",30%
same,Herbicidal action,"[15]; 28 DAT, 50 g a.i./ha",0%
same,Herbicidal action,"[15]; 28 DAT, 150 g a.i./ha",10%
same,Herbicidal action,"[15]; 28 DAT, 450 g a.i./ha",30%
CC(C)C1(C)N=C(c2ncccc2C(=O)O)NC1=O (stereo not shown) [(B4.13) Imazapyr],Herbicidal action in [%] 14 DAT against Bromus sterilis,[1]; 0.5 g of a.i./ha,0%
same,Herbicidal action in [%] 14 DAT against Bromus sterilis,[1]; 1.5 g of a.i./ha,0%
same,Herbicidal action in [%] 28 DAT against Bromus sterilis,[1]; 1.5 g of a.i./ha,10%
same,Herbicidal action in [%] 14 DAT against Bromus sterilis,[1]; 4.5 g of a.i./ha,25%
same,Herbicidal action in [%] 28 DAT against Bromus sterilis,[1]; 4.5 g of a.i./ha,15%
same,Herbicidal action in [%] 28 DAT against Poa annua L.,[2]; 0.5 g of a.i./ha,0%
same,Herbicidal action in [%] 14 DAT against Poa annua L.,[2]; 1.5 g of a.i./ha,0%
same,Herbicidal action in [%] 28 DAT against Poa annua L.,[2]; 1.5 g of a.i./ha,15%
same,Herbicidal action in [%] 14 DAT against Poa annua L.,[2]; 4.5 g of a.i./ha,0%
same,Herbicidal action in [%] 28 DAT against Poa annua L.,[2]; 4.5 g of a.i./ha,20%
same,Herbicidal action in [%] 14 DAT against Matricaria inodora,[3]; 0.5 g of a.i./ha,0%
same,Herbicidal action in [%] 28 DAT against Matricaria inodora,[3]; 0.5 g of a.i./ha,0%
same,Herbicidal action in [%] 28 DAT against Matricaria inodora,[3]; 4.5 g of a.i./ha,20%
same,Herbicidal action in [%] 14 DAT against Lolium rigidum,[4]; 1.5 g of a.i./ha,0%
same,Herbicidal action in [%] 28 DAT against Lolium rigidum,[4]; 1.5 g of a.i./ha,0%
same,Herbicidal action in [%] 14 DAT against Lolium rigidum,[4]; 4.5 g of a.i./ha,20%
same,Herbicidal action in [%] 28 DAT against Lolium rigidum,[4]; 4.5 g of a.i./ha,15%
same,Herbicidal action in [%] 14 DAT against Lolium rigidum (resistant biotype),[5]; 0.5 g of a.i./ha,0%
same,Herbicidal action in [%] 14 DAT against Lolium rigidum (resistant biotype),[5]; 1.5 g of a.i./ha,10%
same,Herbicidal action in [%] 28 DAT against Lolium rigidum (resistant biotype),[5]; 1.5 g of a.i./ha,0%
same,Herbicidal action in [%] 14 DAT against Lolium rigidum (resistant biotype),[5]; 4.5 g of a.i./ha,15%
same,Herbicidal action in [%] 28 DAT against Lolium rigidum (resistant biotype),[5]; 4.5 g of a.i./ha,15%
same,Herbicidal action in [%] 14 DAT against Lamium purpureum L.,[6]; 0.5 g of a.i./ha,0%
same,Herbicidal action in [%] 28 DAT against Lamium purpureum L.,[6]; 0.5 g of a.i./ha,0%
same,Herbicidal action in [%] 14 DAT against Lamium purpureum L.,[6]; 1.5 g of a.i./ha,25%
same,Herbicidal action in [%] 28 DAT against Lamium purpureum L.,[6]; 1.5 g of a.i./ha,0%
same,Herbicidal action in [%] 14 DAT against Lamium purpureum L.,[6]; 4.5 g of a.i./ha,40%
same,Herbicidal action in [%] 28 DAT against Lamium purpureum L.,[6]; 4.5 g of a.i./ha,20%
same,Herbicidal action in [%] 28 DAT against Galium aparine,[7]; 0.5 g of a.i./ha,30%
same,Herbicidal action in [%] 14 DAT against Galium aparine,[7]; 1.5 g of a.i./ha,40%
same,Herbicidal action in [%] 28 DAT against Galium aparine,[7]; 1.5 g of a.i./ha,50%
same,Herbicidal action in [%] 14 DAT against Galium aparine,[7]; 4.5 g of a.i./ha,25%
same,Herbicidal action in [%] 28 DAT against Galium aparine,[7]; 4.5 g of a.i./ha,40%
same,Herbicidal action in [%] 14 DAT against Centaurea cyanus,[14]; 4.5 g of a.i./ha,10%
same,Herbicidal action in [%] 28 DAT against Centaurea cyanus,[14]; 4.5 g of a.i./ha,25%
same,Herbicidal action in [%] 14 DAT against Alopecurus myosuroides,[8]; 1.5 g of a.i./ha,10%
same,Herbicidal action in [%] 14 DAT against Alopecurus myosuroides,[8]; 4.5 g of a.i./ha,20%
same,Herbicidal action in [%] 28 DAT against Alopecurus myosuroides,[8]; 4.5 g of a.i./ha,20%
same,Herbicidal action in [%] 14 DAT against Viola tricolor,[9]; 0.5 g of a.i./ha,10%
same,Herbicidal action in [%] 14 DAT against Viola tricolor,[9]; 1.5 g of a.i./ha,40%
same,Herbicidal action in [%] 28 DAT against Viola tricolor,[9]; 1.5 g of a.i./ha,20%
same,Herbicidal action in [%] 14 DAT against Viola tricolor,[9]; 4.5 g of a.i./ha,40%
same,Herbicidal action in [%] 28 DAT against Viola tricolor,[9]; 4.5 g of a.i./ha,15%
same,Herbicidal action in [%] 14 DAT against Phalaris minor,[10]; 0.5 g of a.i./ha,0%
same,Herbicidal action in [%] 28 DAT against Phalaris minor,[10]; 0.5 g of a.i./ha,0%
same,Herbicidal action in [%] 14 DAT against Phalaris minor,[10]; 1.5 g of a.i./ha,0%
same,Herbicidal action in [%] 28 DAT against Phalaris minor,[10]; 1.5 g of a.i./ha,10%
same,Herbicidal action in [%] 14 DAT against Phalaris minor,[10]; 4.5 g of a.i./ha,25%
same,Herbicidal action in [%] 28 DAT against Phalaris minor,[10]; 4.5 g of a.i./ha,20%
